Substitutions are numbered along the chain they refer to. Where two headings read alike, the source gives them in different places.
Key:
[1] = molecular target: T1, purified wild type MGL (wt-MGLL 6H-11-313) (Homo sapiens, UniProt Q99685); assay: MGL enzyme activity assay (4MU-B cleavage), wild type MGL; format: biochemical; conditions: 10 μM 4MU-B, 5 nM enzyme, 37° C., read-out: MGL wild type inh IC50
T1 construct: purified wild type MGL (wt-MGLL 6H-11-313)
T1 sequence (Q99685 1-303): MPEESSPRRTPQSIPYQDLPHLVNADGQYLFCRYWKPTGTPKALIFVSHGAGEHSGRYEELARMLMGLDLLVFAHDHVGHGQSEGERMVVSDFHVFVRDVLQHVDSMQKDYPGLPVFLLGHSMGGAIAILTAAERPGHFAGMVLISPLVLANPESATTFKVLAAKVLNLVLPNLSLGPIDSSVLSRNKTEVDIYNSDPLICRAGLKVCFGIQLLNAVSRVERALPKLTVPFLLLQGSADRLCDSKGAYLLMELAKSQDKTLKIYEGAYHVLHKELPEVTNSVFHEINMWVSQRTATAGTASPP
Summary of the method: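 Enzyme (5 nM final) cleaved 4MU-B (10 μM final) in 20 mM PIPES pH 7.0 with 150 mM NaCl and 0.001% Tween 20. Compounds were tested at 17 to 0.0003 μM final. Fluorescence (ex 335/em 440 nm) was monitored at 37° C for 5 min, and IC50 was fitted from fractional activity versus inhibitor concentration.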

mutant MGL = molecular target: T2, mutant MGL (Homo sapiens, UniProt Q99685, L169S/L176S); assay: MGL ThermoFluor assay - mutant; format: binding
T2 construct: purified mutant MGL (mut-MGLL 11-313 L179S L186S)
T2 sequence (Q99685 1-303 L169S/L176S): T1 sequence (Q99685 1-303) with L169S, L176S
Summary of the method: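 Thermal shift binding with 0.07 mg/ml L169S/L176S MGL, 100 μM 1,8-ANS, 200 mM NaCl, 0.001% Tween-20, 50 mM PIPES pH 7.0. Heated 40–90 °C at 1 °C/min, fluorescence (em 500 nm) tracked to give Tm; Kd fitted from 11-point concentration–Tm response, qKd when stocks quantified by qNMR.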

MGL = molecular target: T3, MGL (Rattus norvegicus, UniProt Q8R431); assay: 2-AG accumulation assay in rat brain homogenate; format: biochemical; conditions: compound @1 μM, read-out: Rat Brain 2AG % VehCntrl (%) @1 μM
T3 construct: one g rat brain was homogenized; from tissue; host or cells: rat brain homogenate
T3 sequence (Q8R431 1-303): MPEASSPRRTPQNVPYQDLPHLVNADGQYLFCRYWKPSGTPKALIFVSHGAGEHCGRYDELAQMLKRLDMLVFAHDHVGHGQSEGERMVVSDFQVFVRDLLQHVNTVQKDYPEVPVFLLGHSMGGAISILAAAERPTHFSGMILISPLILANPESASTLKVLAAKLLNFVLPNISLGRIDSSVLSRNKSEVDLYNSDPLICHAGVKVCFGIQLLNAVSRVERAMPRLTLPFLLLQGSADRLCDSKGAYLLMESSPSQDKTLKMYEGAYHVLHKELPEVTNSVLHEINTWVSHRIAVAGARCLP
Summary of the method: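 Rat brain homogenate was incubated with compound for 15 min at 37° C., after which CaCl2 was added to a final concentration of 10 mM. Incubation then continued for another 15 min at 37° C. in 5 mL total volume. Reactions were stopped by adding 6 mL of 2:1 chloroform/methanol. 2-AG in the organic phase was quantified by HPLC/MS.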

[2] = compound concentration measured by qNMR, read-out: MGL mutant ThermoFluor qKd (using qNMR conc.)
[3] = 0.07 mg/ml mutant MGL, pH=7.0, read-out: MGL mutant ThermoFluor Kd

IC50 [1] | Kd (mutant MGL; [2]) | 2-AG accumulation, percent of vehicle control at 1 µM (MGL) | Kd (mutant MGL; [3]) | Structure (SMILES)
< 5 nM | 1.2 nM | 539% |  | O=C(c1nccs1)N1CC(C2CCN(C(=O)c3sc4cc(C(F)(F)F)ccc4c3Cl)CC2)C1 [Cpd 69, 1-{[3-Chloro-6-(trifluoromethyl)-1-benzothiophen-2-yl]carbonyl}-4-[1-(1,3-thiazol-2-ylcarbonyl)azetidin-3-yl]piperidine]
12 nM | 1.2 nM | 552% |  | O=C(c1ccc[nH]1)N1CC(C2CCN(C(=O)c3sc4cc(C(F)(F)F)ccc4c3Cl)CC2)C1 [Cpd 71, 1-{[3-Chloro-6-(trifluoromethyl)-1-benzothiophen-2-yl]carbonyl}-4-[1-(1H-pyrrol-2-ylcarbonyl)azetidin-3-yl]piperidine]
17 nM | 2.7 nM | 657% |  | O=C(c1ccc2c(ccn2-c2ccc(F)cc2)c1)N1CCC(C2CN(C(=O)c3nccs3)C2)CC1 [Cpd 72, 1-(4-Fluorophenyl)-5-({4-[1-(1,3-thiazol-2-ylcarbonyl)azetidin-3-yl]piperidin-1-yl}carbonyl)-1H-indole]
66.5 nM | 6.6 nM | 590% |  | O=C(c1ccc2nc(-c3ccccc3)oc2c1)N1CCC(C2CN(C(=O)c3cscn3)C2)CC1 [Cpd 67, 2-Phenyl-6-({4-[1-(1,3-thiazol-4-ylcarbonyl)azetidin-3-yl]piperidin-1-yl}carbonyl)-1,3-benzoxazole]
< 5 nM | 1 nM | 561% |  | O=C(c1ccc(-c2cccc(C(F)(F)F)c2)cc1)N1CCC(C2CN(C(=O)c3ccc[nH]3)C2)CC1 [Cpd 50, 4-[1-(1H-Pyrrol-2-ylcarbonyl)azetidin-3-yl]-1-{[3′-(trifluoromethyl)biphenyl-4-yl]carbonyl}piperidine]
< 5 nM | 6.9 nM | 370% |  | O=C(c1ccc(Cc2cccc(C(F)(F)F)c2)cc1)N1CCC(C2CN(C(=O)c3cscn3)C2)CC1 [Cpd 58, 4-[1-(1,3-Thiazol-4-ylcarbonyl)azetidin-3-yl]-1-({4-[3-(trifluoromethyl)benzyl]phenyl}carbonyl)piperidine]
< 5 nM | 5 nM | 714% |  | O=C(c1ccc2c(ccn2-c2ccc(C(F)(F)F)cc2)c1)N1CCC(C2CN(C(=O)c3ccc[nH]3)C2)CC1 [Cpd 77, 5-({4-[1-(1H-Pyrrol-2-ylcarbonyl)azetidin-3-yl]piperidin-1-yl}carbonyl)-1-[4-(trifluoromethyl)phenyl]-1H-indole]
6 nM | 1 nM | 908% |  | O=C(c1ccc(-c2cccc(C(F)(F)F)c2)cc1)N1CCC(C2CN(C(=O)c3cscn3)C2)CC1 [Cpd 49, 4-[1-(1,3-Thiazol-4-ylcarbonyl)azetidin-3-yl]-1-{[3′-(trifluoromethyl)biphenyl-4-yl]carbonyl}piperidine]
8 nM | 0.6 nM | 561% |  | O=C(c1cscn1)N1CC(C2CCN(C(=O)c3sc4cc(C(F)(F)F)ccc4c3Cl)CC2)C1 [Cpd 70, 1-{[3-Chloro-6-(trifluoromethyl)-1-benzothiophen-2-yl]carbonyl}-4-[1-(1,3-thiazol-4-ylcarbonyl)azetidin-3-yl]piperidine]
11.4 nM | 8.3 nM | 731% |  | O=C(c1ccc2c(ccn2-c2ccc(C(F)(F)F)cc2)c1)N1CCC(C2CN(C(=O)c3cscn3)C2)CC1 [Cpd 76, 5-({4-[1(1,3-Thiazol-4-ylcarbonyl)azetidin-3-yl]piperidin-1-yl}carbonyl)-1-[4-(trifluoromethyl)phenyl]-1H-indole]
37.9 nM | 33.3 nM | 153% | 76.7 nM | O=C(c1ccc[nH]1)N1CC(C2CCN(C(=O)c3ccc(-c4ccccc4)cc3F)CC2)C1 [Cpd 47, 1-[(3-Fluorobiphenyl-4-yl)carbonyl]-4-[1-(1H-pyrrol-2-ylcarbonyl)azetidin-3-yl]piperidine]

Further lines, the molecule ahead of its results:

Structure (SMILES) | IC50 [1] | Kd (mutant MGL; [2]) | 2-AG accumulation, percent of vehicle control at 1 µM (MGL) | Kd (mutant MGL; [3])
Cc1c(C(=O)N2CC(C3CCN(C(=O)c4cscn4)CC3)C2)sc2cc(C(F)(F)F)ccc12 [Cpd 14, 4-(1-{[3-Methyl-6-(trifluoromethyl)-1-benzothiophen-2-yl]carbonyl}azetidin-3-yl)-1-(1,3-thiazol-4-ylcarbonyl)piperidine] | 5 nM |  | 231% | 5 nM
O=C(c1ccc[nH]1)N1CCC(C2CN(C(=O)c3ccc(-c4ccccc4)cc3F)C2)CC1 [Cpd 21, 4-{1-[(3-Fluorobiphenyl-4-yl)carbonyl]azetidin-3-yl}-1-(1H-pyrrol-2-ylcarbonyl)piperidine] | 12.4 nM |  | 287% | 28.6 nM
O=C(c1ccc(-c2ccccc2)cc1)N1CC(C2CCN(C(=O)c3ccns3)CC2)C1 [Cpd 3, 4-[1-(Biphenyl-4-ylcarbonyl)azetidin-3-yl]-1-(isothiazol-5-ylcarbonyl)piperidine] | 33.9 nM |  | 135% | 55.7 nM
O=C(c1ccc2c(ccn2-c2ccc(C(F)(F)F)cc2)c1)N1CC(C2CCN(C(=O)c3ccc[nH]3)CC2)C1 [Cpd 43, 5-({3-[1-(1H-Pyrrol-2-ylcarbonyl)piperidin-4-yl]azetidin-1-yl}carbonyl)-1-[4-(trifluoromethyl)phenyl]-1H-indole] | < 5 nM | 26.4 nM | 611% | 
O=C(c1ccc2c(ccn2-c2ccc(F)cc2)c1)N1CC(C2CCN(C(=O)c3nccs3)CC2)C1 [Cpd 30, 1-(4-Fluorophenyl)-5-({3-[1-(1,3-thiazol-2-ylcarbonyl)piperidin-4-yl]azetidin-1-yl}carbonyl)-1H-indole] | < 5 nM |  | 443% | 2.5 nM
O=C(c1nccs1)N1CCC(C2CN(C(=O)c3ccc(-c4ccccc4)cc3F)C2)CC1 [Cpd 15, 4-{1-[(3-Fluorobiphenyl-4-yl)carbonyl]azetidin-3-yl}-1-(1,3-thiazol-2-ylcarbonyl)piperidine] | 7 nM |  | 281% | 9 nM
O=C(c1ccc(-c2ccc(C(F)(F)F)s2)cc1)N1CC(C2CCN(C(=O)c3cscn3)CC2)C1 [Cpd 12, 1-(1,3-Thiazol-4-ylcarbonyl)-4-[1-({4-[5-(trifluoromethyl)thiophen-2-yl]phenyl}carbonyl)azetidin-3-yl]piperidine] | 10 nM |  | 134% | 22 nM
O=C(c1ccc(Cc2ccc(C(F)(F)F)cc2)cc1)N1CC(C2CCN(C(=O)c3cscn3)CC2)C1 [Cpd 33, 1-(1,3-Thiazol-4-ylcarbonyl)-4-[1-({4-[4-(trifluoromethyl)benzyl]phenyl}carbonyl)azetidin-3-yl]piperidine] | < 5 nM |  | 696% | 62.6 nM
O=C(c1ccc2c(ccn2-c2ccc(F)c(F)c2)c1)N1CC(C2CCN(C(=O)c3ccc[nH]3)CC2)C1 [Cpd 44] | < 5 nM | 21.3 nM | 107% | 
O=C(c1ccc2c(ccn2-c2ccc(C(F)(F)F)cc2)c1)N1CC(C2CCN(C(=O)c3cscn3)CC2)C1 [Cpd 37, 5-({3-[1(1,3 -Thiazol-4-ylcarbonyl)piperidin-4-yl]azetidin-1-yl}carbonyl)-1-[4-(trifluoromethyl)phenyl]-1H-indole] | < 5 nM |  | 163% | 16 nM

— patent publication US8513423B2 (Janssen Pharmaceutica, NV, priority 2010, dated 2013)
